Assay results: patent US9073916B2, “Prodrug forms of kinase inhibitors and their use in therapy” (AUCKLAND UNISERVICES LIMITED, priority 2009, dated 2015)
pIC50: −log10 of the molar value. Where two headings read alike, the source gives them in different places.

Tests used:
[1] = Steady state radiolytic reduction by the CO2.− radical with HPLC-MS; assay type: physicochemical
[2] = Pulse radiolysis (E(1) and fragmentation rate); assay type: physicochemical; conditions: for kfrag. (fragmentation rate constant upon 1-electron reduction): benzyl-type radical formation; for E (1)/V (one-electron reduction potential): determined against methylviologen
A431 xenografts = test: In vivo efficacy in A431 xenografts
Procedure: (§1) Specific pathogen-free homozygous female CD-1 nude mice (Charles River Laboratories, Wilmington, Mass.) were inoculated subcutaneously with a single cell suspension of A431 cells (5×10^6 cells/100 pt; right flank). When A431 tumour xenografts were established (typically 6-10 days) mice were randomized to treatment groups. All compounds were prepared in lactate buffer (pH4). Mice were dosed by intraperitoneal injection (0.01-0.03 ml/g) using the stated schedules and dose levels. Tumour size and body weights were measured at regular intervals. Tumour volume was calculated as π (length×width^2)/6. […] Differences in RTV^4 were tested for statistical difference by Mann Whitney U test using SigmaStat v3.5.

SKOV3 xenografts = test: In vivo efficacy in SKOV3 xenografts; design: species or system mice
Procedure: as §1, with “NIH-III” for “CD-1”, “SKOV3” for “A431”, “(1×10^7” for “(5×10^6”, “μL;” for “pt;”, “50-65” for “6-10”
as §1, with “NIH-III” for “CD-1”, “SKOV3” for “A431”, “(1×10^7” for “(5×10^6”, “μL;” for “pt;”, “50-65” for “6-10”, “Compounds 42 and 161” for “All compounds”

Solubility by HPLC = conditions: α-MEM cell culture medium
A431 cells = test: Cellular growth inhibition (sulforhodamine B)
Procedure: Human A431, BT474, SKBR3, SKOV3, SW620, H1975 and HT29 carcinoma cells in log phase exponential growth in alpha minimal essential media (αMEM) containing 5% fetal bovine serum (FBS), were harvested by trypsinisation (1× trypsin/EDTA, Gibco Brl), counted, and seeded into 96 well plates (Nunc) at cell densities ranging from 800-1500 cells/well. Half of the cell samples were seeded into plates that were pre-equilibrated and held in an anoxic environment (90% N2, 5% H2, 5% CO2, 37° Q Anaerobic chamber, Coy Laboratory Products). […] At the end of this period the anoxic plates were recovered from the anaerobic camber and held under normoxia in a standard CO2 incubator (37° C.) for 20 hours. All plates were washed free of compound and cells were allowed to proliferate for a further 4 days in αMEM containing 5% FBS+antibiotics. Cells were fixed in trichloroacteic acid (30 min), washed and stained with sulforhodamine B (SRB, 60 min) prior to washing in acidified water. SRB was solubilised and absorption read at 450 nm to calculate cell densities. Inhibition of proliferation was calculated relative to untreated control wells.
Human A431, H1975 and SKOV3 carcinoma cells in log phase exponential growth in alpha minimal essential media (αMEM) containing 5% fetal bovine serum (FBS), were harvested by trypsinisation (1× trypsin/EDTA, Gibco Brl), counted, and seeded into 96 well plates (Nunc) at cell densities ranging from 800-1500 cells/well. Half of the cell samples were seeded into plates that were pre-equilibrated and held in an anoxic environment (90% N2, 5% H2, 5% CO2, 37° C.; Anaerobic chamber, Coy Laboratory Products). […] At the end of this period the anoxic plates were recovered from the anaerobic camber and held under normoxia in a standard CO2 incubator (37° C.) for 20 hours. All plates were washed free of compound and cells were allowed to proliferate for a further 4 days in αMEM containing 5% FBS+antibiotics. Cells were fixed in trichloroacteic acid (30 min), washed and stained with sulforhodamine B (SRB, 60 min) prior to washing in acidified water. SRB was solubilised and absorption read at 450 nm to calculate cell densities. Inhibition of proliferation was calculated relative to untreated control wells.

erbB1 [3] = target: T1, erbB1 (Homo sapiens, UniProt P00533); test: Cellular erbB1 inhibition: irreversibility wash-out assay in A431 cells; conditions: 1 μM, 1 hour exposure, then EGF stimulation
erbB1 [4] = target: T1, erbB1; test: Inhibition of erbB1 autophosphorylation in EGF-stimulated intact A431 cells (Western blot)
[5] = HPLC-MS at 0.95 reducing equivalents

T1 sequence (P00533 25-1210): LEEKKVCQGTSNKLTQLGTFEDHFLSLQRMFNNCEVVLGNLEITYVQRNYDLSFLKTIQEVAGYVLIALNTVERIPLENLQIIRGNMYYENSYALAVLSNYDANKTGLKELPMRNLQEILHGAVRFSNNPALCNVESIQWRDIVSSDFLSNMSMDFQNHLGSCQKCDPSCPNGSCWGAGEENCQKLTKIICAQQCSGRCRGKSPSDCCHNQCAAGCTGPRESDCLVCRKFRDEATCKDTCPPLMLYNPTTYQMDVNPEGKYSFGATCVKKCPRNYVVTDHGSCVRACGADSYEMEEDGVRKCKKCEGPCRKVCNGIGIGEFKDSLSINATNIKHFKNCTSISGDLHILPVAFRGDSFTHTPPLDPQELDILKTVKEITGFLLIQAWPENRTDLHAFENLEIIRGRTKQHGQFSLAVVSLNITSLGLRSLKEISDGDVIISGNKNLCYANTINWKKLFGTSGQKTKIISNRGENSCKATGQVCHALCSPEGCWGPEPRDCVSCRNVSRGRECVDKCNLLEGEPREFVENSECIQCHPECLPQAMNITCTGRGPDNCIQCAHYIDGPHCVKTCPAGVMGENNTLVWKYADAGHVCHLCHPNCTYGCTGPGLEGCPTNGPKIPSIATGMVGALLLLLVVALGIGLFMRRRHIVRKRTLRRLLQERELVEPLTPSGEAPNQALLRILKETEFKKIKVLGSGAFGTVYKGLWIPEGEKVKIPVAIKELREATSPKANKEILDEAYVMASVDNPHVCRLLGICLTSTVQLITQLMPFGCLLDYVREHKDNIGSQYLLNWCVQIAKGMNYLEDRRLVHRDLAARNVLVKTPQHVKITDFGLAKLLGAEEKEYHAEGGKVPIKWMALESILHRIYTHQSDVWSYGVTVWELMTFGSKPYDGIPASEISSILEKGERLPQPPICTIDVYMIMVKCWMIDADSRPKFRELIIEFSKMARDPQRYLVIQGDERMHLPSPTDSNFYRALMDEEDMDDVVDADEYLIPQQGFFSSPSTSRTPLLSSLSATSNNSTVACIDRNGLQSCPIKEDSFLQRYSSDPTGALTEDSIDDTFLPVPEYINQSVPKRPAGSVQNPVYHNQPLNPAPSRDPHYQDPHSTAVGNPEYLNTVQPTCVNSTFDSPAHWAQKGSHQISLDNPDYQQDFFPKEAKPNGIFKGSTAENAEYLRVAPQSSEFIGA

Compound: Cn1cnc([N+](=O)[O-])c1C[N+](C)(C)C/C=C/C(=O)Nc1ccc2ncnc(Nc3cccc(Br)c3)c2c1.[Br-] [Compound 20, (2E)-4-{[4-(3-bromoanilino)-6-quinazolinyl]amino}-N,N-dimethyl-N-[(1-methyl-4-nitro-1H-imidazol-5-yl)methyl]-4-oxo-2-buten-1-ammonium bromide]
- Effector release/Prodrug loss ([1]; 0.95 reducing equivalents): 1.00
- Detection of MNA (methyl nitroaromatic) ([1]; HPLC-MS): Yes
- % Loss of prodrug [1, 5]: 55%
- % Release of effector [1, 5]: 55%
- release of effector following 1-electron reduction ([1]; steady state radiolysis, HPLC-MS): released effector (compound 11) detected
- kfrag. (fragmentation rate constant upon 1-electron reduction) [2]: 130 ± 10 s⁻¹
- E (1)/V (one-electron reduction potential) [2]: −0.427 V
- efficacy by growth delay (A431 xenografts; A431 xenografts, equitoxic dose (63% of single dose MTD), q4dx6, IP): superior efficacy to effector 11
- tumour growth inhibition (TGI) (A431 xenografts; A431 xenografts, q4dx3 at MTD, IP in lactate buffer): > 210%
- deaths (A431 xenografts; A431 xenografts, q4dx6, 63% of single dose MTD): 0/12
- efficacy by growth delay (SKOV3 xenografts; 133 (20) and 56 (11) umol/kg/dose, q3dx6, IP): superior efficacy to effector 11
- deaths (SKOV3 xenografts; q3dx6, 133 (20) and 56 (11) umol/kg/dose): 0/7
- solubility (Solubility by HPLC): 1112 µM
- pIC50 (A431 cells; read-out: Cellular Growth Inhibition IC50 A431 Anoxic, Table 3, first 4 hours of 24 hour exposure anoxic): 7.11
- pIC50 (A431 cells; read-out: Cellular Growth Inhibition IC50 A431 Oxic, Table 3, 24 hour exposure entirely oxic): 5.68
- erbB1 autophosphorylation, cells not washed free of drug (erbB1 [3]): not completely inhibited
- pIC50 (erbB1 [4]; read-out: cellular erbB1 autophosphorylation IC50, intact A431 cells): 6.26

Compound: Cn1cnc([N+](=O)[O-])c1C[N+](C)(C)C/C=C/C(=O)Nc1cc2c(Nc3ccc(F)c(Br)c3)ncnc2cn1 [Compound 42, (2E)-4-{[4-(3-bromo-4-fluoroanilino)pyrido[3,4-d]pyrimidin-6-yl]amino}-N,N-dimethyl-N-[(1-methyl-4-nitro-1H-imidazol-5-yl)methyl]-4-oxo-2-buten-1-ammonium bromide]
- kfrag. (fragmentation rate constant upon 1-electron reduction) [2]: 50 ± 10 s⁻¹
- E (1)/V (one-electron reduction potential) [2]: −0.425±0.008 V
- tumour growth inhibition (TGI) (A431 xenografts; large A431 xenografts, 20 mg/kg/dose, q3dx8, IP): 400%
- tumour growth inhibition (TGI) (A431 xenografts; large A431 xenografts, 40 mg/kg/dose, q3dx8, IP): 800%
- tumour growth inhibition (TGI) (A431 xenografts; large A431 xenografts, 60 mg/kg/dose, q3dx8, IP): 786%
- tumour growth inhibition (TGI) (A431 xenografts; large A431 xenografts, 80 mg/kg/dose, q3dx8, IP): 843%
- efficacy by growth delay (SKOV3 xenografts; 100 (42) and 31.6 (161) μmol/kg/dose, q3dx9, IP): superior efficacy to compound 161
- deaths (SKOV3 xenografts; q3dx9, 100 (42) and 31.6 (161) μmol/kg/dose): 0/7
- solubility (physchem; aqueous buffer): 129 µM
- solubility (physchem; water): > 1160 µM
- pIC50 (A431 cells; Homo sapiens, A-431, 4 h, read-out: Cellular Growth Inhibition IC50 A431 Anoxic): 7.12
- pIC50 (A431 cells; Homo sapiens, A-431, 24 h, read-out: Cellular Growth Inhibition IC50 A431 Oxic): 5.77
- A431 Deact. (A431 cells; Table 9): 56 fold
- A431 HCR (A431 cells; Table 9): 60.0 fold
- pIC50 (erbB1 [4]): 6.39
- Deact. erbB1 (fold reduction in cellular inhibition relative to the parent kinase inhibitor) (erbB1 [4]; Table 8, A431 cells): 82 fold
